Reference: PMC3577938 (Organic & biomolecular chemistry, 2013)

Tests used:
Assay type in all cases: cell-based
[1] = target: T1, human TLR8 (Homo sapiens, UniProt Q9NR97); assay: Human TLR8-specific reporter gene assay; details: for Agonistic Activity (μM) TLR8: EC50 in human TLR8-specific reporter gene assay, Inactive = EC50 >100 μM; for TLR8-agonistic potency/activity (in words): hTLR8 reporter gene assay
T1 sequence (Q9NR97 27-1041): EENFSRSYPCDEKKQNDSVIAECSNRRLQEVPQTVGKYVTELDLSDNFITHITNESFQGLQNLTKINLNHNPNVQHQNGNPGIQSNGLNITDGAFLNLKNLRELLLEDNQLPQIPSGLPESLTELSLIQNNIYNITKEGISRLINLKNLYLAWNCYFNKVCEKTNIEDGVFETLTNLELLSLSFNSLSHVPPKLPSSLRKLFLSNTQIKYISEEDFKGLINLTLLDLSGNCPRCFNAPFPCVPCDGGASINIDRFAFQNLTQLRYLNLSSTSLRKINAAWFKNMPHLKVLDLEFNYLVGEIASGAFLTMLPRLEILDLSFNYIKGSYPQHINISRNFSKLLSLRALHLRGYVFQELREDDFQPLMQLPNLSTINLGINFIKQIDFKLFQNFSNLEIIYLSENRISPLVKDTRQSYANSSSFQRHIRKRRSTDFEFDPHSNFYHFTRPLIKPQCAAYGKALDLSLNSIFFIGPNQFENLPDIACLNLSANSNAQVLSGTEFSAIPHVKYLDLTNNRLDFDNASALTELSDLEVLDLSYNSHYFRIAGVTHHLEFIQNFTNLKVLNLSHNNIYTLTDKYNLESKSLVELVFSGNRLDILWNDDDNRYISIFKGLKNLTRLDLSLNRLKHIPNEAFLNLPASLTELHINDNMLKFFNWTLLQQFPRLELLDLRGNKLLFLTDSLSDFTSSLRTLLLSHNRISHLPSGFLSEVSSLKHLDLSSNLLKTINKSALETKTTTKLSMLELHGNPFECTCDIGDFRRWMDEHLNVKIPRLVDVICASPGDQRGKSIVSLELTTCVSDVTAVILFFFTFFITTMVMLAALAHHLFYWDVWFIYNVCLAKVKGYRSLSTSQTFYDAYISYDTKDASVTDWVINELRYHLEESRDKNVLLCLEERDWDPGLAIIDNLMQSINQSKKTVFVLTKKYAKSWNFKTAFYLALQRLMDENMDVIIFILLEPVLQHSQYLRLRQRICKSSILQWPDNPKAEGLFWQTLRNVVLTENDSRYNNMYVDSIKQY

[2] = target: T2, human TLR7 (Homo sapiens, UniProt Q9NYK1); assay: Human TLR7-specific reporter gene assay; details: for Agonistic Activity (μM) TLR7: EC50 in human TLR7-specific reporter gene assay, Inactive = EC50 >100 μM
T2 sequence (Q9NYK1 27-1049): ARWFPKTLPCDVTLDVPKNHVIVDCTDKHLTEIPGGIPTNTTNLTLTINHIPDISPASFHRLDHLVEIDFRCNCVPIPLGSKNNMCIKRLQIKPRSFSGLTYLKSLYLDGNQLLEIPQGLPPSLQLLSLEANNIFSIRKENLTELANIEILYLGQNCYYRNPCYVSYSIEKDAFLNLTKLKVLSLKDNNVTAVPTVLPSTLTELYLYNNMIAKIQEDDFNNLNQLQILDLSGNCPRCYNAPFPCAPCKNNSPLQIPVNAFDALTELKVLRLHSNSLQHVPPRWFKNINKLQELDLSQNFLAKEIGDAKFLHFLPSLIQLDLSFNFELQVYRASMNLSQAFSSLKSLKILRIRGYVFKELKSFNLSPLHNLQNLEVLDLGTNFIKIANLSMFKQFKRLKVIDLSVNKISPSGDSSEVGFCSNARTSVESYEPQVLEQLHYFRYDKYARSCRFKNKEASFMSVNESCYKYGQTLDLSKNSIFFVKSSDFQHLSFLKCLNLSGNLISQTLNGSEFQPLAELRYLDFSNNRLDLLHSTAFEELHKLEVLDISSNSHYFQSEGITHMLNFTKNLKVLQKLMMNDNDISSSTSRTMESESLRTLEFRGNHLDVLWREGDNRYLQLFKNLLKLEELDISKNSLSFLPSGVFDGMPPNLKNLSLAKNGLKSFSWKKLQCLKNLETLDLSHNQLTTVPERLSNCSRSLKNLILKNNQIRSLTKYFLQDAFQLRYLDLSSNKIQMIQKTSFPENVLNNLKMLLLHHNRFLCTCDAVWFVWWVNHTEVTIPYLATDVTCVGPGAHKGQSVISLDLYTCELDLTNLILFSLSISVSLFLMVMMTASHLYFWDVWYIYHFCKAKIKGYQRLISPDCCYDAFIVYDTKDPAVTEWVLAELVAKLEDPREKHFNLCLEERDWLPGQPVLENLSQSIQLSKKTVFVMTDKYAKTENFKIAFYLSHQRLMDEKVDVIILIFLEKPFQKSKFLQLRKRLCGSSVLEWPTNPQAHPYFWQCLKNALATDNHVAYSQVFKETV

[3] = system: human TLR7 or human TLR8; details: primary TLR8/TLR7 reporter gene assays, receptor not given

Agonistic Activity (μM) TLR8 [1]	Agonistic Activity (μM) TLR7 [2]	SMILES	further results
Inactive	Inactive	CCCCS(=O)(=O)Nc1nc2ccccc2c2sc(CCC)nc12 [Compound 15u, N-(2-propylthiazolo[4,5-c]quinolin-4-yl)butane-1-sulfonamide]	–
Inactive	Inactive	CCCCCCCCCc1nc2c(N)nc3ccccc3c2s1 [Compound 8h, 2-nonylthiazolo[4,5-c]quinolin-4-amine]	–
Inactive	Inactive	CCCCCCCCOC(=O)Nc1nc2ccccc2c2sc(CCC)nc12 [Compound 15p, octyl (2-propylthiazolo[4,5-c]quinolin-4-yl)carbamate]	–
–	Inactive	CCCc1nc2c(NC(C)=O)nc3ccccc3c2s1 [Compound 15e, N-(2-propylthiazolo[4,5-c]quinolin-4-yl)acetamide]	TLR8-agonistic potency/activity (in words) [1]: virtually inactive
Inactive	Inactive	CCCc1cn(-c2ccc3nc(N)c4nc(CCC)sc4c3c2)nn1 [Compound 12d, 2-propyl-8-(4-propyl-1H-1,2,3-triazol-1-yl)thiazolo[4,5-c]quinolin-4-amine]	–
Inactive	Inactive	CCCc1nc2c(N)nc3ccc(-n4cc(CO)nn4)cc3c2s1 [Compound 12b, (1-(4-amino-2-propylthiazolo[4,5-c]quinolin-8-yl)-1H-1,2,3-triazol-4-yl)methanol]	–
Inactive	Inactive	CCCCCc1cn(-c2ccc3nc(N)c4nc(CCC)sc4c3c2)nn1 [Compound 12e, 8-(4-pentyl-1H-1,2,3-triazol-1-yl)-2-propylthiazolo[4,5-c]quinolin-4-amine]	–
–	–	CCCc1nc2c(N)nc3ccc(N=[N+]=[N-])cc3c2s1 [Compound 11, 8-azido-2-propylthiazolo[4,5-c]quinolin-4-amine]	agonistic activity (in words) [3]: inactive
Inactive	Inactive	CCCc1nc2c(NS(=O)(=O)c3ccc(C)cc3)nc3ccccc3c2s1 [Compound 15v, 4-methyl-N-(2-propylthiazolo[4,5-c]quinolin-4-yl)benzenesulfonamide]	–
Inactive	Inactive	CCCc1nc2c(NC(=O)OCC)nc3ccccc3c2s1 [Compound 15n, ethyl (2-propylthiazolo[4,5-c]quinolin-4-yl)carbamate]	–
–	–	Nc1nc2ccccc2c2sc(CCCC(F)(F)F)nc12 [Compound 8q, 2-(4,4,4-trifluorobutyl)thiazolo[4,5-c]quinolin-4-amine]	TLR8-agonistic potency/activity (in words) [1]: decrease in potency
Inactive	Inactive	CCCCCCCCCCCCCCCCNc1nc2ccccc2c2sc(CCC)nc12 [Compound 15c, N-hexadecyl-2-propylthiazolo[4,5-c]quinolin-4-amine]	–
–	Inactive	CCCc1nc2c(NS(C)(=O)=O)nc3ccccc3c2s1 [Compound 15r, N-(2-propylthiazolo[4,5-c]quinolin-4-yl)methanesulfonamide]	–
Inactive	Inactive	CCCc1nc2c(N)nc3ccc(-n4ccnn4)cc3c2s1 [Compound 12g, 2-propyl-8-(1H-1,2,3-triazol-1-yl)thiazolo[4,5-c]quinolin-4-amine]	–
Inactive	Inactive	CCCCOC(=O)Nc1nc2ccccc2c2sc(CCC)nc12 [Compound 15o, butyl (2-propylthiazolo[4,5-c]quinolin-4-yl)carbamate]	–
Inactive	Inactive	CCCc1nc2c(NS(=O)(=O)CCC)nc3ccccc3c2s1 [Compound 15t, N-(2-propylthiazolo[4,5-c]quinolin-4-yl)propane-1-sulfonamide]	–
Inactive	Inactive	CCCc1nc2c(N)nc3ccc(-n4cc(-c5ccccc5)nn4)cc3c2s1 [Compound 12c, 8-(4-phenyl-1H-1,2,3-triazol-1-yl)-2-propylthiazolo[4,5-c]quinolin-4-amine]	–
–	–	CC(C)c1nc2c(N)nc3ccccc3c2s1 [Compound 8i, 2-isopropylthiazolo[4,5-c]quinolin-4-amine]	reduction in TLR8-agonistic potency ([1]; isopropyl at C2, fold reduction): approximately ten-fold; attenuation of activity in TLR7-specific reporter gene assays ([2]; isopropyl at C2, fold attenuation): about two-fold
–	–	CCCc1nc2c(N)nc3ccc(N)cc3c2s1 [Compound 10, 2-propylthiazolo[4,5-c]quinoline-4,8-diamine]	agonistic activity (in words) [3]: attenuated activity relative to 8c
–	–	CCCCCc1nc2c(N)nc3ccccc3c2s1 [Compound 8e, 2-pentylthiazolo[4,5-c]quinolin-4-amine]	TLR8-agonistic potency/activity (in words) [1]: attenuation of potency
–	Inactive	C#CCCC(=O)Nc1nc2ccccc2c2sc(CCC)nc12 [Compound 15l, N-(2-propylthiazolo[4,5-c]quinolin-4-yl)pent-4-ynamide]	–
–	Inactive	CCCc1nc2c(NC(=O)CCN=[N+]=[N-])nc3ccccc3c2s1 [Compound 15k, 3-azido-N-(2-propylthiazolo[4,5-c]quinolin-4-yl)propanamide]	–
Inactive^a	Inactive	CCCCCCc1nc2c(N)nc3ccccc3c2s1 [Compound 8f, 2-hexylthiazolo[4,5-c]quinolin-4-amine]	–
Inactive	Inactive	CCCc1nc2c(NS(=O)(=O)CC)nc3ccccc3c2s1 [Compound 15s, N-(2-propylthiazolo[4,5-c]quinolin-4-yl)ethanesulfonamide]	–
Inactive	Inactive	CCCCCCCc1nc2c(N)nc3ccccc3c2s1 [Compound 8g, 2-heptylthiazolo[4,5-c]quinolin-4-amine]	–
Weak	Inactive	CCCc1nc2c(NC(=O)OC)nc3ccccc3c2s1 [Compound 15m, methyl (2-propylthiazolo[4,5-c]quinolin-4-yl)carbamate]	–
Inactive	Inactive	CCCc1nc2c(N)nc3ccc(-n4cc(C(C)(C)O)nn4)cc3c2s1 [Compound 12a, 2-(1-(4-amino-2-propylthiazolo[4,5-c]quinolin-8-yl)-1H-1,2,3-triazol-4-yl)propan-2-ol]	–

SMILES	Agonistic Activity (μM) TLR8 [1]	Agonistic Activity (μM) TLR7 [2]	further results
CCCc1nc2c(N)nc3ccc(-n4cc([Si](C)(C)C)nn4)cc3c2s1 [Compound 12f, 2-propyl-8-(4-(trimethylsilyl)-1H-1,2,3-triazol-1-yl)thiazolo[4,5-c]quinolin-4-amine]	–	Inactive	–
